In patent US11071550B2, “Methods and devices for treating pancreatitis” (priority 2017, dated 2021):

Tests used:
mouse pancreas [1] = test system: mouse pancreas
monkey pancreas = settings: 1% acetic acid
Source text: Cynomologus monkeys can be used to study the retrograde infusion protocol in primates. […] The Cynomologus monkeys are first quarantined for 30 days, then transferred to the primate facility and given a 1 to 2-week acclimatization period before operating. After acclimatization, the animals undergo a laparotomy and duodenotomy with cannulation of the ampulla of Vater and temporary clamping of the common bile duct to prevent perfusion of the liver (additional details below).
Fluoroscopic dye can also be infused to confirm the location and positioning of the catheter (FIGS. 12A and 12B). […] The catheter and clamp are then removed and the surgery completed.
Cynomologus infusion procedure details: After induction of general anesthesia, the abdomen is prepped and draped and a 10 to 12 centimeter upper abdominal midline incision created. The duodenum is fully mobilized out of the retroperitoneum and a non-crushing clamp applied to the common bile duct to prevent the composition from perfusing the bile duct and liver. A two centimeter duodenotomy is then created to expose the ampulla of Vater, which is cannulated with a 2.8 French double lumen umbilical artery catheter. A clamp is then placed on the minor papilla and catheter to prevent back leaking of the composition. […]
During the 3 to 6-week period between the procedure and the sacrifice, Cynomologus monkeys are supplied with CREON enzymes as a dietary supplement to avoid malabsorption due to loss of acinar enzyme production by the pancreas. […] Throughout the 3 to 6-week period, the Cynomologus monkeys are monitored for scleral icterus as a sign of possible biliary obstruction due to bile duct structuring caused by the infusion.
At harvest, the pancreas and duodenum are examined grossly in situ, and then removed en bloc along with the common bile duct. […] In addition, beta cell mass is calculated based on the percent insulin positive area on histology along with the gross weight of the pancreas.

[2] = test system: ligated tail of the pancreas
Source text: Mouse pancreatic duct ligation (PDL) yields a model that is reflective of chronic pancreatitis with progressive loss of islet tissue. In the PDL procedure, the pancreatic duct is ligated at the mid-point of the pancreas (FIG. 4, right image). Thus, only the distal half (tail) of the pancreas is affected since the ligation is positioned at the mid-point of the duct. […] FIGS. 5A-5E show insulin staining using DAB, whereas FIGS. 5F-5J show insulin and amylase staining using immunofluorescence (with a Hoescht counterstain for labeling cell nuclei).
The negative effects of a pancreatitis milieu on β-cell function are well known (17).
Five repeats are analyzed in each condition. […] Significance is considered when p<0.05.

mouse pancreas [3] = test system: mouse pancreas; remark: listed apart in the source
Mouse islets = assay: In vitro static glucose stimulated insulin secretion (GSIS) of isolated islets
[4] = 100% ethanol infused at 8 weeks post-PDL
[5] = 100% ethanol, 1, 3, 6, 9 months

**Q.** Which “immunohistochemistry of treated pancreatic tissue (insulin, amylase)” value (mouse pancreas [1]; 1% acetic acid) does the source give for CC(=O)O [acetic acid] here?
**A.** insulin positive and amylase negative

**Q.** What about the “islets (histology)” value (mouse pancreas [1]; 1% acetic acid) of the same molecule?
**A.** remained intact

**Q.** What about the “open field testing: rearing (time pressed) vs sham group” value (mouse pancreas [1]; 1% acetic acid) of the same molecule?
**A.** not significantly different

**Q.** What about the exocrine tissue (mouse pancreas [1]; 1% acetic acid, 6 months (FIG. 7)) of the same molecule?
**A.** ablation of the exocrine tissue

**Q.** And the pain (mouse pancreas [1]; 1% acetic acid, conclusion from open field testing)?
**A.** does not cause pain

**Q.** What about the “open field testing: distance traveled vs sham group” value (mouse pancreas [1]; 1% acetic acid, distance in meters) of the same molecule?
**A.** not significantly different

**Q.** And the “recovery from the infusion procedure” value (monkey pancreas; e.g. 7 milliliters at 500 centimeters of water)?
**A.** recover well

**Q.** What about the “ablation of the exocrine pancreas” value (monkey pancreas; three weeks after infusion) of the same molecule?
**A.** ablation of the exocrine pancreas in the head and body of the pancreas, and part of the tail

**Q.** And the “islets (H&E)” value (monkey pancreas; three weeks after infusion)?
**A.** intact islets

**Q.** How did the “loss of islets in the pancreatic tail” value [2, 4] turn out when CCO [ethanol] was run?
**A.** prevents the loss of islets in the pancreatic tail

**Q.** And the recurrent inflammation [2, 4]?
**A.** no detectable recurrent inflammation

**Q.** And the “regeneration of acinar cells” value ([2]; 100% ethanol infused at 8 weeks post-PDL, insulin and amylase staining)?
**A.** no detectable regeneration of acinar cells

**Q.** And the “β-cell mass in the ligated tail” value ([2]; PDL + ethanol infusion at 8 weeks, 24 weeks, mean±SEM)?
**A.** 0.61±0.01 milligrams

**Q.** What about the “fasting blood glucose levels vs PDL and sham operated” value ([2]; PDL+ethanol-infused, 24 weeks) of the same molecule?
**A.** no different

**Q.** What about the “glucose tolerance testing vs PDL and sham operated” value ([2]; PDL+ethanol-infused, 24 weeks) of the same molecule?
**A.** no different

**Q.** What about the jaundice rates ([2]; male, C57BL/6, mouse, in vivo) of the same molecule?
**A.** less than 5%

**Q.** What about the “time to significant levels of ethanol in the blood after infusion” value (mouse pancreas [3]; 100% ethanol pancreatic ductal infusion) of the same molecule?
**A.** ≤ 5 min

**Q.** What about the “pancreatic acinar tissue upon sacrifice” value (mouse pancreas [3]; 100% ethanol, 100 microliters, sacrifice at 1, 3, 6, 9 months) of the same molecule?
**A.** no evidence of pancreatic acinar tissue

**Q.** And the “amylase (AMY) staining” value (mouse pancreas [3]; [5])?
**A.** absent at all time points

**Q.** And the “pancreatic endocrine tissue (β-cells and alpha cells)” value (mouse pancreas [3]; [5])?
**A.** well-preserved

**Q.** And the “endocrine function: in vivo insulin levels during glucose tolerance testing” value (mouse pancreas [3]; 100% ethanol, 9-month time point)?
**A.** appears normal

**Q.** And the “islet vasculature (CD31 staining)” value (mouse pancreas [3]; 100% ethanol, 9 months)?
**A.** appears to be intact

**Q.** And the “fasting glucose levels vs sham-operated controls” value (mouse pancreas [3]; 100% ethanol, all time points)?
**A.** no difference

**Q.** What about the “glucose tolerance tests vs sham-operated controls” value (mouse pancreas [3]; 100% ethanol, all time points) of the same molecule?
**A.** no difference

**Q.** And the “body weight vs controls” value (mouse pancreas [3]; 100% ethanol, elemental diet)?
**A.** not different from controls

**Q.** What about the “β-cell mass vs sham-operated” value (mouse pancreas [3]; 100% ethanol, pancreatic tail, any time point) of the same molecule?
**A.** no significant difference

**Q.** And the “fasting glucose levels vs sham operated controls” value (mouse pancreas [1]; Example 2, all time points)?
**A.** no difference

**Q.** What about the “glucose tolerance tests vs sham operated controls” value (mouse pancreas [1]; Example 2, all time points) of the same molecule?
**A.** no difference

**Q.** And the “insulin secretion by islets from the pancreatic tail (in vitro GSIS)” value (Mouse islets; PDL+ethanol-infused tail islets, per 200 islets, low or high glucose, vs sham)?
**A.** normal insulin secretion pattern

**Q.** What about the “endocrine function: in vitro glucose-stimulated insulin secretion (GSIS)” value (Mouse islets; islets from 100% ethanol-infused mice, 9-month time point) of the same molecule?
**A.** appears normal
